Measured values taken from US10617690B2 (priority 2015, dated 2020).
Structures can show the parent of a compound that is named as a salt.

How the values were obtained:
JAK1 protein kinase = JAK1 protein kinase (Homo sapiens, UniProt P23458); experiment: biochemical; details: 38 uM ATP, 90 min
Procedure: In Vitro Activity Test of Jak1, Jak 2 and Jak 3 Kinase
Recombinant humanized JAK1, JAK2 and JAK3 […] were all purchased from Life technology. LANCE Ultra ULight™-JAK-1(Tyr1023) peptide and LANCE Eu-W1024 Anti-phosphotyrosine (PT66) were both purchased from PerkinElmer. Envision (PerkinElmer) was used to read a plate.
Three dilution of a test compound was prepared, and 11 final concentrations were obtained: 10 uM to 0.17 nM. Each concentration had two repeat wells. The content of DMSO in a detection reaction was 1%.
2 nM JAK1 protein kinase, 50 nM LANCE Ultra ULight™-JAK-1(Tyr1023) peptide, 38 uM ATP, 50 mM HEPES (pH7.5), 10 mM MgCl2, 1 mM EGTA, 2 mM DTT, and 0.01% BRIJ-35. Detection plate was White Proxiplate 384-Plus plate (PerkinElmer), the reaction was conducted for 90 min at room temperature, and reaction system was 10 ul.
10 ul detection reagent was added into the reaction plate, wherein the final concentration of LANCE Eu-W1024 Anti-phosphotyrosine (PT66) was 2 nM, the final concentration of EDTA was 10 mM, incubation was conducted for 60 min at room temperature, and the plate was read by the Envision.
The reading was converted into a suppression ratio as follow equation: (%)=([…])/(Max−Min)*100%. IC50 data was detected by 4 parametric curve fitting (Model 205 in XLFIT5, iDBS), see Table 1.

JAK2 protein kinase = JAK2 protein kinase (Homo sapiens, UniProt O60674); experiment: biochemical; details: 12 uM ATP, 60 min;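 also: recombinant human JAK2 with ULight-labelled JAK-1(Tyr1023) peptide substrate, phosphorylation detected by TR-FRET using Eu-labelled anti-phosphotyrosine antibody, 1% DMSO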
Description: (§1) Recombinant humanized JAK1, JAK2 and JAK3 protease were all purchased from Life technology. LANCE Ultra ULight™-JAK-1(Tyr1023) peptide and LANCE Eu-W1024 Anti-phosphotyrosine (PT66) were both purchased from PerkinElmer. Envision (PerkinElmer) was used to read a plate.
(§2) The reading was converted into a suppression ratio as follow equation: (%)=(Min−Ratio)/(Max−Min)*100%.

JAK3 = biological target: T1, JAK3 (Homo sapiens, UniProt P52333); experiment: In vitro activity test of JAK3 kinase (LANCE Ultra TR-FRET); assay type: biochemical;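 also: recombinant human JAK3 phosphorylating ULight-JAK-1(Tyr1023) peptide at 4 µM ATP, with 1% DMSO, detected by Eu-anti-phosphotyrosine TR-FRET on Envision and converted to percent inhibition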
T1 construct: purchased Life technology
T1 sequence (P52333 1-1124): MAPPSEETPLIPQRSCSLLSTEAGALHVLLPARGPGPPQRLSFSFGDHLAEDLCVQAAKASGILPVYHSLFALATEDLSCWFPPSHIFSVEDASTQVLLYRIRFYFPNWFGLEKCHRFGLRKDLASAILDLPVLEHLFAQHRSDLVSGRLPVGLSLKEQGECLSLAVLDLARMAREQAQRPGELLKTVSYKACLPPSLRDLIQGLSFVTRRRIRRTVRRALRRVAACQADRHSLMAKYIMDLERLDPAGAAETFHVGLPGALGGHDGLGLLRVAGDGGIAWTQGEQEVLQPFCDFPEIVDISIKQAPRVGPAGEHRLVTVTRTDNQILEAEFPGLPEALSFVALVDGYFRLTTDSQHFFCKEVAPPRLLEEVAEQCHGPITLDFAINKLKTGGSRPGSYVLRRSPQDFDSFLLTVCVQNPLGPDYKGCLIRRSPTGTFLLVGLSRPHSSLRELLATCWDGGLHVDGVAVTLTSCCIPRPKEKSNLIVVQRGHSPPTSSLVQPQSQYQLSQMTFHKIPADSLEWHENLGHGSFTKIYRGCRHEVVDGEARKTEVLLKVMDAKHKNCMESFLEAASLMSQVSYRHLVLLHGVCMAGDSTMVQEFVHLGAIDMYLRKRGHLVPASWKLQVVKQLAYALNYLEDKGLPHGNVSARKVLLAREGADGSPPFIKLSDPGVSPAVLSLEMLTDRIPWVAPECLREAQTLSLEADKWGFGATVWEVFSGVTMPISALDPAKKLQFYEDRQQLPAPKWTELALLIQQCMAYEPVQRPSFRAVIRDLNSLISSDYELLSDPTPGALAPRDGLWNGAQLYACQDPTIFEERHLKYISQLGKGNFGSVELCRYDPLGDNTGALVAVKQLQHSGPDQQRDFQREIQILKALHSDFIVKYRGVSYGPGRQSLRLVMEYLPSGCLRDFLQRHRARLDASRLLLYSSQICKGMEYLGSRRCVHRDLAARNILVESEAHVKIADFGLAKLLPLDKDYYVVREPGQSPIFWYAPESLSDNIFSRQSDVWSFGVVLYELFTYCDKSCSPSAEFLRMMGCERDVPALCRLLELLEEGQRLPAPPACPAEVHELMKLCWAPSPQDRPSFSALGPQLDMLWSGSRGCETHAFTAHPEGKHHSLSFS
Procedure: as §1
0.05 nM protein kinase, 50 nM LANCE Ultra ULight™-JAK-1(Tyr1023) peptide, 4 uM ATP, 50 mM HEPES (pH7.5), 10 mM MgCl2, 1 mM EGTA, 2 mM DTT, and 0.01% BRIJ-35.
as §2

Sequence of JAK1 protein kinase (P23458 whole entry): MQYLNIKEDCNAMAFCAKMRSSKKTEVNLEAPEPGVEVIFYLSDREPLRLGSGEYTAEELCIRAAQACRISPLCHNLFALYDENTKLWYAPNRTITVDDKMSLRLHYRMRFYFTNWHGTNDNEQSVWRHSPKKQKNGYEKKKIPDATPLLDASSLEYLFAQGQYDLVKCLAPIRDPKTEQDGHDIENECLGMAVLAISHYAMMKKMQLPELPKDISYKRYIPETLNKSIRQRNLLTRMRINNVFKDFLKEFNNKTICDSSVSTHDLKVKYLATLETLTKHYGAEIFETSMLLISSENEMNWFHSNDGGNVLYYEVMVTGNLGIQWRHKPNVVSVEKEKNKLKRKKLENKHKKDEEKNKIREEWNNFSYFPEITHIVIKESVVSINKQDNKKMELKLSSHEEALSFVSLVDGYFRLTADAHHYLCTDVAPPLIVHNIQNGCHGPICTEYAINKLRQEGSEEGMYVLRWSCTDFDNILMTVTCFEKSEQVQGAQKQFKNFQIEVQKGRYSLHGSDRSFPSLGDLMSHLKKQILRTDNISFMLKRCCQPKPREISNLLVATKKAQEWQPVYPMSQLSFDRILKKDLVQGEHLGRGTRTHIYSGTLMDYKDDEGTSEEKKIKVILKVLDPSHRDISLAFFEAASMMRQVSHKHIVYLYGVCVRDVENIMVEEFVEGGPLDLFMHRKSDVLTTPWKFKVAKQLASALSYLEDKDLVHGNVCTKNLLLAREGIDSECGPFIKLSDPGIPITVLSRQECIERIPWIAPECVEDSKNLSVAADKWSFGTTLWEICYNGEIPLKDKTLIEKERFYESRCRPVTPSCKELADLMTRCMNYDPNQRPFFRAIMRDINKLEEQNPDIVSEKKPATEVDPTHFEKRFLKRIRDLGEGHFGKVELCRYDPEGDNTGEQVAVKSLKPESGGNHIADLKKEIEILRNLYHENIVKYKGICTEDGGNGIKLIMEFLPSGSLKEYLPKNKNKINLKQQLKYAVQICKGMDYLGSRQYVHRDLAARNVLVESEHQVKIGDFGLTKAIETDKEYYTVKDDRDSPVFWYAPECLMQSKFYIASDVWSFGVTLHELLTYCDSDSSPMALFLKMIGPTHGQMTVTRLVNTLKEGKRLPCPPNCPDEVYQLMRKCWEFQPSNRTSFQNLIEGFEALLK
Sequence of JAK2 protein kinase (O60674 whole entry): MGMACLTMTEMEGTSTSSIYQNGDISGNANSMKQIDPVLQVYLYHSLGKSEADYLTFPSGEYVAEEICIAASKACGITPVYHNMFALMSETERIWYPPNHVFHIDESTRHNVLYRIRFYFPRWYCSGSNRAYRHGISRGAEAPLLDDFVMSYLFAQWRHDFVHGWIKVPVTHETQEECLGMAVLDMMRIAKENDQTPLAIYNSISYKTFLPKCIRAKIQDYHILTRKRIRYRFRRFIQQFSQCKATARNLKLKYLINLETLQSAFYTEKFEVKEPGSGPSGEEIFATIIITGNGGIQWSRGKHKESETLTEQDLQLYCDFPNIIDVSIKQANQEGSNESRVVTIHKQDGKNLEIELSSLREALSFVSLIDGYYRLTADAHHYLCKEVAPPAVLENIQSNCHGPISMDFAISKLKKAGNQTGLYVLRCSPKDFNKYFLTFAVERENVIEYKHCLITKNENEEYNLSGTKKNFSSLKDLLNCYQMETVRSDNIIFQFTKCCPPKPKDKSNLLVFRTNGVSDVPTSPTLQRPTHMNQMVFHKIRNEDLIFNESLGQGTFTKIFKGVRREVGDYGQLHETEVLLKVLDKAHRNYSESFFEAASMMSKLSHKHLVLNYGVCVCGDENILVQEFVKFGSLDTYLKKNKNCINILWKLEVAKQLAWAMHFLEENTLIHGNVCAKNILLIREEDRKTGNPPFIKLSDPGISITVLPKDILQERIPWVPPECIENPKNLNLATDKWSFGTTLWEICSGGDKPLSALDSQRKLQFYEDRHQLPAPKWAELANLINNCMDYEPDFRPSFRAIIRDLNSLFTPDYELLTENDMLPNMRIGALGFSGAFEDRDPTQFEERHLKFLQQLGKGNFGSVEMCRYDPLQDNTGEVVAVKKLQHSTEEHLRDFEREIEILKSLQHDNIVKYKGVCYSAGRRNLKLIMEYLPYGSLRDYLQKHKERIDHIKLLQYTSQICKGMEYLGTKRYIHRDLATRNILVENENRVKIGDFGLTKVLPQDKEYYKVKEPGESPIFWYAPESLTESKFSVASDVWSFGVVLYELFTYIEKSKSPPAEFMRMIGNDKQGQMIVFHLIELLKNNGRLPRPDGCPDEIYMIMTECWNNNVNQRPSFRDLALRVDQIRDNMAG

| Compound | IC50 (JAK1 protein kinase) [µM] | IC50 (JAK2 protein kinase) [µM] | IC50 (JAK3) [µM] |
| --- | --- | --- | --- |
| CN(c1ncnc2[nH]ccc12)N1CCC[C@@H](C(=O)NCC(F)(F)C(F)(F)F)C1 (single isomer, unassigned) [WX51, (3R or 3S)-1-[methyl(7H-pyrrole[2,3-d]pyrimidine-4-)amino]-N-(2,2,3,3,3-pentafluoropropyl)piperidyl-3-formamide] | > 1 | > 1 | > 1 |
| O=C(NCC(F)(F)F)C1CCN(Nc2ncnc3[nH]ccc23)CC1 [WX22] | 0.1 to 1 | > 1 | 0.1 to 1 |
| CN(c1ncnc2[nH]ccc12)N1CCCN(C(=O)CC(F)(F)F)CC1 [WX36] | 0.1 to 1 | > 1 | > 1 |
| CN(c1ncnc2[nH]ccc12)N1CCCC(C(=O)N2CC(O)C2)C1 (stereo not drawn) [WX54] | 0.1 to 1 | 0.1 to 1 | 0.1 to 1 |
| CC(C)(C)OC(=O)N1CC2CN(Nc3ncnc4[nH]ccc34)CC2C1 (stereo not drawn) [WX48, 5-[[7H-pyrrole[2,3-d]pyrimidine-4-]amino]-hexahydropyrrolo[3,4-c]pyrrole-2(1H)-tert-butyl formate] | > 1 | > 1 | > 1 |
| CN(c1ncnc2[nH]ccc12)N1CCC(C(=O)NCC(F)(F)F)CC1 [WX23] | 0.01 to 0.1 | 0.1 to 1 | 0.01 to 0.1 |
| O=C(CC(F)(F)F)N1CCCN(Nc2ncnc3[nH]ccc23)CC1 [WX35, L-(4-((7H-pyrrolo[2,3-d]pyrimidin-4-yl)amino)-diazepan-1-yl)-3,3,3-trifluorotrifluoropropan-1-one] | > 1 | > 1 | > 1 |
| CN(c1ncnc2[nH]ccc12)N1CCC[C@H](C(=O)NCC#N)C1 (single isomer, unassigned) [WX09, (S or R)—N-(cyanomethyl-1-[methyl(7H-pyrrolo[2,3-d]pyrimidin-4-yl)amino]piperidyl)-3-formamide] | 0.1 to 1 | > 1 | > 1 |
| CC1CCC(C(=O)NCC(F)(F)F)CN1N(C)c1ncnc2[nH]ccc12 (stereo not drawn) [WX27, 6-methyl-1-(methyl(7H-pyrrole[2,3-d]pyrimidin-4-yl)amino)-N-(2,2,2-trifluoroethyl)piperidyl-3-formamide] | 0.1 to 1 | > 1 | 0.1 to 1 |
| CN(c1ncnc2[nH]ccc12)N1CCC[C@H](C(=O)NCC(F)F)C1 (single isomer, unassigned) [WX50, (3S or 3R)-1-[methyl(7H-pyrrole[2,3-d]pyrimidine-4-)amino]-N-(2,2-difluoroethyl)piperidyl-3-formamide] | 0.1 to 1 | > 1 | 0.1 to 1 |
| CN(c1ncnc2[nH]ccc12)N1CCCC(C(N)=O)C1 (stereo not drawn) [WX11] | 0.1 to 1 | 0.1 to 1 | 0.1 to 1 |
| CN(c1ncnc2[nH]ccc12)N1CCCC(C)(C(=O)NCC#N)C1 (stereo not drawn) [WX37, N-(cyanomethyl)-3-methyl-1-[methyl(7H-pyrrolo[2,3-d]pyrimidie-yl)amino]piperidyl-3-formamide] | > 1 | > 1 | > 1 |
| CCOC(=O)C1CCCN(N(C)c2ncnc3[nH]ccc23)C1 (stereo not drawn) [WX10, Ethyl 1-[methyl(7H-pyrrolo[2,3-d]pyrimidin-4-yl)amino]piperidyl-3-carboxylate] | 0.01 to 0.1 | 0.1 to 1 | 0.01 to 0.1 |
| CN(c1ncnc2[nH]ccc12)N1CCCN(C(=O)CC#N)CC1 [WX34, 3-(4-(methyl(7H-pyrrolo[2,3-d]pyrimidin-4-yl)amino)-1,4-diazepan-1-yl)-3-carbonyl-propionitrile] | 0.1 to 1 | 0.1 to 1 | 0.1 to 1 |

Results, then the molecule that gave them:

| IC50 (JAK1 protein kinase) [µM] | IC50 (JAK2 protein kinase) [µM] | IC50 (JAK3) [µM] | Compound |
| --- | --- | --- | --- |
| 0.01 to 0.1 | > 1 | 0.1 to 1 | N#CCNC(=O)C1CCN(Nc2ncnc3[nH]ccc23)CC1 [WX21] |
| 0.01 to 0.1 | > 1 | > 1 | O=C(NCC(F)(F)F)C1CN(Nc2ncnc3[nH]ccc23)CCO1 (stereo not drawn) [WX40, 4-((7H-pyrrolo[2,3-d]pyrimidin-4-yl)amino)-N-(2,2,2-trifluoroethyl)morpholine-2-form amide] |
| 0.01 to 0.1 | 0.1 to 1 | 0.1 to 1 | CN(c1ncnc2[nH]ccc12)N1CCCC(CC#N)C1 (stereo not drawn) [WX44, 2-[1-[methyl[7H-pyrrole[2,3-d]pyrimidine-4-]amino]-3-piperidyl]acetonitrile] |
| < 0.01 | 0.01 to 0.1 | 0.01 to 0.1 | O=C(NCC(F)(F)F)C1CCCN(Nc2ncnc3[nH]ccc23)C1 (stereo not drawn) [WX01, 1-((7H-pyrrolo[2,3-d]pyrimidin-4-yl)amino)-N-(2,2,2-trifluoroethyl)piperidyl-3-formamide] |
| < 0.01 | 0.01 to 0.1 | 0.01 to 0.1 | CN(c1ncnc2[nH]ccc12)N1CCC(C(=O)NCC#N)C1 (stereo not drawn) [WX30, N-(cyanomethyl)-1-[methyl(7H-pyrrolo[2,3-d]pyrimidin-4-yl)amino]pyrrolidyl-3-formamide] |
| < 0.01 | 0.01 to 0.1 | 0.01 to 0.1 | CN(c1ncnc2[nH]ccc12)N1CCC[C@H](C(=O)NCC(F)(F)C(F)(F)F)C1 (single isomer, unassigned) [WX52, (3S or 3R)-1-[methyl(7H-pyrrole[2,3-d]pyrimidine-4-)amino]-N-(2,2,3,3,3-pentafluoropropyl)piperidyl-3-formamide] |
| 0.01 to 0.1 | 0.1 to 1 | 0.1 to 1 | CN(c1ccnc2[nH]ccc12)N1CCCC(C(=O)NCC(F)(F)F)C1 (stereo not drawn) [WX15, N-(2,2,2-trifluoroethyl)-1-(methyl(1H-pyrrole[2,3-d]pyridin-4-yl)amino)piperidyl-3-formamide] |
| < 0.01 | < 0.01 | < 0.01 | CN(c1ncnc2[nH]ccc12)N1CCC[C@@H](C(=O)NCC(F)F)C1 (single isomer, unassigned) [WX49, (3R or 3S)-1-[methyl(7H-pyrrole[2,3-d]pyrimidine-4-)amino]-N-(2,2-difluoroethyl)piperidyl-3-formamide] |
| < 0.01 | 0.01 to 0.1 | 0.01 to 0.1 | CN(c1ncnc2[nH]ccc12)N1CCC(C(=O)NCC(F)(F)F)C1 (stereo not drawn) [WX31, 1-[methyl(7H-pyrrolo[2,3-d]pyrimidin-4-yl)amino]-N-(2,2,2-trifluoroethyl)pyrrolidyl-3-formamide] |
| < 0.01 | 0.01 to 0.1 | 0.01 to 0.1 | CSCNC(=O)C1CCCN(N(C)c2ncnc3[nH]ccc23)C1 (stereo not drawn) [WX43] |
